Laboratory results from patent publication US7109185B2, “Pharmaceutical formulations comprising indolinone derivatives” (Sugen, Inc., priority 2001, dated 2006).
One block for each compound: values may come before it.

What was measured:
[1] = tested on: vascular endothelial growth factor receptor (Flk-1/KDR); conditions: Fong et al. (1999) Cancer Res. 59:99–106; cited from earlier work
[2] = Plasma Stability Test: conversion of prodrug to drug after IV administration to dogs, HPLC analysis of blood plasma; type: in vivo; conditions: IV at 2 mg/mL, blood plasma followed for 4 hours
Experimental: The prodrug (3Z)-3-[(3,5-dimethyl-1H-pyrrol-2-yl)-methylidene]-1-(1-pyrrolidinylmethyl)-1,3-dihydro-2H-indol-2-one was administered IV at 2 mg/mL to dogs. Levels of both prodrug and drug (3(Z)-3-[(3,5-dimethyl-1H-pyrrol-2-yl)-methylidene]-1,3-dihydro-2H-indol-2-one) were followed by HPLC analysis of blood plasma for 4 hours following dosing.

[3] = Hydrolysis (pH stability profile) at pH 7.2 and 7.6; type: physicochemical; conditions: for half-life: buffer, read-out: Half life, t1/2 (hydrolysis)
From the text: (3Z)-3-[(3,5-Dimethyl-1H-pyrrol-2-yl)-methylidene]-1-(1-pyrrolidinylmethyl)-1,3-dihydro-2H-indol-2-one is a Mannich base and is designed to hydrolyse to 3-(3,5-dimethyl-1H-pyrrol-2-ylmethylene)-1,3-dihydro-indol-2-one at physiological pH. The stability of (3Z)-3-[(3,5-dimethyl-1H-pyrrol-2-yl)-methylidene]-1-(1-pyrrolidinylmethyl)-1,3-dihydro-2H-indol-2-one is higher at a lower pH. […] The pH stability profile of (3Z)-3-[(3,5-dimethyl-1H-pyrrol-2-yl)-methylidene]-1-(1-pyrrolidinylmethyl)-1,3-dihydro-2H-indol-2-one at pH 7.2 and pH 7.6 is tabulated in table 1.

- melting point: 200 to 202 °C
SMILES: Cc1cc(C)c(/C=C2\C(=O)N(CO)c3ccccc32)[nH]1 [Example 1, (3Z)-3-[(3,5-dimethyl-1H-pyrrol-2-yl)-methylidene]-1-(hydroxymethyl)-1,3-dihydro-2H-indol-2-one]

- melting point: 160 to 162 °C
SMILES: Cc1cc(C)c(/C=C2\C(=O)N(COC(=O)CCC(=O)O)c3ccccc32)[nH]1 [Example 3, 4-({(3Z)-3-[(3,5-dimethyl-1H-pyrrol-2-yl)-methylidene]-2-oxo-2,3-dihydro-1H-indol-1-yl}methoxy)-4-oxobutanoic acid]

The next lines start with the compound.

SMILES: Cc1cc(C)c(C=C2C(=O)Nc3ccccc32)[nH]1 [3-(3,5-dimethyl-1H-pyrrol-2-ylmethylene)-1,3-dihydro-indol-2-one]
- inhibition of the vascular endothelial growth factor receptor (Flk-1/KDR) [1]: highly active selective inhibitor

SMILES: Cc1cc(C)c(/C=C2\C(=O)N(CN3CCCC3)c3ccccc32)[nH]1 [Example 14, (3Z)-3-[(3,5-dimethyl-1H-pyrrol-2-yl)-methylidene]-1-(1-pyrrolidinylmethyl)-1,3-dihydro-2H-indol-2-one]
- melting point: 129 to 132 °C
- prodrug converted into drug (area under the curve of drug concentration vs time) [2]: 80%
- half-life ([2]; dog): 7.3 min
- half-life ([3]; pH 7.2): 6.2 min
- half-life ([3]; pH 7.6): 6 min
- hydrolysis to 3-(3,5-dimethyl-1H-pyrrol-2-ylmethylene)-1,3-dihydro-indol-2-one ([3]; physiological pH): rapidly hydrolyses

SMILES: CC(=O)OC(C)N1C(=O)/C(=C\c2[nH]c(C)cc2C)c2ccccc21 (stereo not shown) [Example 4, 1-{(3Z)-3-[(3,5-dimethyl-1H-pyrrol-2-yl)-methylidene]-2-oxo-2,3-dihydro-1H-indol-1-yl}ethyl acetate]
- melting point: 107 to 110 °C
